{"source": "patent US11767310B2", "about": "“Nicotinamide RIPK1 inhibitors” (AbbVie Inc., priority 2021, dated 2023)", "assay_in_all_cases": "Kinase binding screen", "details_in_all_cases": "read-out: Percent Control at 100 nM Compound Concentration", "key": {"CSNK2A2": {"target": "CSNK2A2 (Homo sapiens (Human), UniProt P19784)", "sequence (P19784 whole entry)": "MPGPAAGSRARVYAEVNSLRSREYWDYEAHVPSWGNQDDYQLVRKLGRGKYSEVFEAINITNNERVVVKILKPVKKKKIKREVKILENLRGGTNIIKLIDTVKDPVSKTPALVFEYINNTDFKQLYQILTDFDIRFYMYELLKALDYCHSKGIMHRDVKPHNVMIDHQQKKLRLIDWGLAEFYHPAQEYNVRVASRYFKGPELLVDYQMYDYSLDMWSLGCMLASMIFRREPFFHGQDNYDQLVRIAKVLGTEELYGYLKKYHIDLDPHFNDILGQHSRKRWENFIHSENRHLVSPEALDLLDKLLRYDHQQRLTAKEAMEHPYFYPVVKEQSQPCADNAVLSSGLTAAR"}, "ARK5": {"target": "ARK5 (Homo sapiens (Human), UniProt O60285)", "sequence (O60285 whole entry)": "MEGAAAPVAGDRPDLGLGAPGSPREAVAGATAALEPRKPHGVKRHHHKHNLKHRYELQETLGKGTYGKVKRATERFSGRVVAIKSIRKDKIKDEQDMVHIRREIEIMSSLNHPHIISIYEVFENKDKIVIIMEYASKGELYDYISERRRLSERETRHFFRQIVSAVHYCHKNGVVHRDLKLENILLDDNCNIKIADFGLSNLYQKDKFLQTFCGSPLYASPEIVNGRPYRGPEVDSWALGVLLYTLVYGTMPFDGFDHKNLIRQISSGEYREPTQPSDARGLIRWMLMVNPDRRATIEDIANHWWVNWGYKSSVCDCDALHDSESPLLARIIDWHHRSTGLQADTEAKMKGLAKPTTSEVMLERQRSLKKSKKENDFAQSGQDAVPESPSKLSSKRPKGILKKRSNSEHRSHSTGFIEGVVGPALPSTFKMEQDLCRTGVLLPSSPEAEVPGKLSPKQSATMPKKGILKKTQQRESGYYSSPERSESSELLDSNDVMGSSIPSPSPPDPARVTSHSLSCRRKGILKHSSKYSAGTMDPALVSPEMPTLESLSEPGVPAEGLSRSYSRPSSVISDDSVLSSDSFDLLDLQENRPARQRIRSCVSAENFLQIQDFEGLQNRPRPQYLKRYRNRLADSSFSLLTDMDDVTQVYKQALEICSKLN"}, "RAF1": {"target": "RAF1 (Homo sapiens (Human), UniProt P04049)"}, "YSK4": {"target": "YSK4 (Homo sapiens (Human), UniProt Q56UN5)"}, "TRPM6": {"target": "TRPM6 (Homo sapiens (Human), UniProt Q9BX84)"}, "NLK": {"target": "NLK (Homo sapiens (Human), UniProt Q9UBE8)"}, "SRPK2": {"target": "SRPK2 (Homo sapiens (Human), UniProt P78362)"}, "FER": {"target": "FER (Homo sapiens (Human), UniProt P16591)"}, "STK36": {"target": "STK36 (Homo sapiens (Human), UniProt Q9NRP7)"}, "PIK3CA(E545K)": {"target": "PIK3CA(E545K) (Homo sapiens (Human), UniProt P42336, E545K)"}, "PRKCQ": {"target": "PRKCQ (Homo sapiens (Human), UniProt Q04759)"}, "ERBB3": {"target": "ERBB3 (Homo sapiens (Human), UniProt P21860)", "sequence (P21860 20-1342)": "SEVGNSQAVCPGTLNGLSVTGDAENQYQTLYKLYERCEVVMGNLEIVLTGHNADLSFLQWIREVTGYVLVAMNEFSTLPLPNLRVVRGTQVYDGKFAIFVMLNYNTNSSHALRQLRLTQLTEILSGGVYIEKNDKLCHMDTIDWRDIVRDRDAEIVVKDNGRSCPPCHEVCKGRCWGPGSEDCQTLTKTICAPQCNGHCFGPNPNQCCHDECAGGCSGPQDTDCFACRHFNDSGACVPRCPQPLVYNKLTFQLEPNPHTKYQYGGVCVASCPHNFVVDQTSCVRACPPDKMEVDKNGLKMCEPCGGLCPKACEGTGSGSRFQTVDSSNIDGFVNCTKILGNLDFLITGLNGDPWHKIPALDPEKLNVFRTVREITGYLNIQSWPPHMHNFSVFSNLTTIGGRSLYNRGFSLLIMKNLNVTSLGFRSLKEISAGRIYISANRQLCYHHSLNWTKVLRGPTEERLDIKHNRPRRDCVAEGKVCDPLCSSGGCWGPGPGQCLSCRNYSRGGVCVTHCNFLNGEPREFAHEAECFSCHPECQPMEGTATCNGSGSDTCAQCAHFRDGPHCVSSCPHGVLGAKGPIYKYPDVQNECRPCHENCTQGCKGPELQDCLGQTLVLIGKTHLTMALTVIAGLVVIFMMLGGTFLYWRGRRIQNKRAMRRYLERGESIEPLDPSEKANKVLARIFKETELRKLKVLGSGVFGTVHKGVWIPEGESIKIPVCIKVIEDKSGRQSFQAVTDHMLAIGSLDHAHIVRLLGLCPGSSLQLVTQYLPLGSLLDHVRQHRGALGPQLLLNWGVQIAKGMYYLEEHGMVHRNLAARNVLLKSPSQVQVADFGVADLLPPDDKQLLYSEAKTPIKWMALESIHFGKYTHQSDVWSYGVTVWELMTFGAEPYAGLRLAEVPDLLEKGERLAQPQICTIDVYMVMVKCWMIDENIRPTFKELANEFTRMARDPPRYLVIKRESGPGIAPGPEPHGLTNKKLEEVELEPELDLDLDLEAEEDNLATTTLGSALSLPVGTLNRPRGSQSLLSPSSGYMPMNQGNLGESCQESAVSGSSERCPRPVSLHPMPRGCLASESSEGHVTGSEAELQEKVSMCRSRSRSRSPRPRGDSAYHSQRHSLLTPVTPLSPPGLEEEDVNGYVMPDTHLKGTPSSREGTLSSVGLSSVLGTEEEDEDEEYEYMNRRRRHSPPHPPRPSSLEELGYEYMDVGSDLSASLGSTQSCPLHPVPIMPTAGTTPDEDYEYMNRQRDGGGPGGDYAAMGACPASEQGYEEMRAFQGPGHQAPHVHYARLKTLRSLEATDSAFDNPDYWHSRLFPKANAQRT"}, "LTK": {"target": "LTK (Homo sapiens (Human), UniProt P29376)"}, "CDC2L1": {"target": "CDC2L1 (Homo sapiens (Human), UniProt P21127)"}, "PIM3": {"target": "PIM3 (Homo sapiens (Human), UniProt Q86V86)"}, "RET": {"target": "RET (Homo sapiens (Human), UniProt P07949)"}, "NDR1": {"target": "NDR1 (Homo sapiens (Human), UniProt Q15208)", "sequence (Q15208 whole entry)": "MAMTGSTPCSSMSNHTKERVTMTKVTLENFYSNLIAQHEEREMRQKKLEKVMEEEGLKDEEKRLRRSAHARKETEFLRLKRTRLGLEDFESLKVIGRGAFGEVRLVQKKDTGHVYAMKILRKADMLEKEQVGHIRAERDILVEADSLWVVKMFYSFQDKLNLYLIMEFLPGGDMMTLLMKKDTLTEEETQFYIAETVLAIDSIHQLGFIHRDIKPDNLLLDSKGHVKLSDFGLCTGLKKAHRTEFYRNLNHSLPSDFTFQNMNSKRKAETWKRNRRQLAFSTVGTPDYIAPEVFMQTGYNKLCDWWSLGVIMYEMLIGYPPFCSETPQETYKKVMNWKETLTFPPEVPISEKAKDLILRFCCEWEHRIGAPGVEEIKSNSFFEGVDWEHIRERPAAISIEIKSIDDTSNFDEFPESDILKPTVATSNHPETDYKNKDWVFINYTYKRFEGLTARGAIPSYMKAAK"}, "RET(V804L)": {"target": "RET(V804L) (Homo sapiens (Human), UniProt P07949, V804L)"}, "CDK5": {"target": "CDK5 (Homo sapiens (Human), UniProt Q00535)"}, "RIOK1": {"target": "RIOK1 (Homo sapiens (Human), UniProt Q9BRS2)"}, "FYN": {"target": "FYN (Homo sapiens (Human), UniProt P06241)"}, "MST4": {"target": "MST4 (Homo sapiens (Human), UniProt Q9P289)", "sequence (Q9P289 whole entry)": "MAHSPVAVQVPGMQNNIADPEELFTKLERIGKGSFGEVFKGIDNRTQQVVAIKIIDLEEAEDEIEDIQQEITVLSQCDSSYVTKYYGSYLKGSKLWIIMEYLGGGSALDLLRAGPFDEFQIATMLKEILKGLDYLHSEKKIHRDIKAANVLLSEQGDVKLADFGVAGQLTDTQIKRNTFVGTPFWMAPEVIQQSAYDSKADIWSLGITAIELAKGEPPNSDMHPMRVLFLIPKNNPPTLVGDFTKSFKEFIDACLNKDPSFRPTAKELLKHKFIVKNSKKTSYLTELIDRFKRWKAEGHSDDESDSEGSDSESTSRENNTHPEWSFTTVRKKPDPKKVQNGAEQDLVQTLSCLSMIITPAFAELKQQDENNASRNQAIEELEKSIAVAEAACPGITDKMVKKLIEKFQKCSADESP"}, "[1]": {"target": "TYK2(JH1domain-catalytic) (Homo sapiens (Human), UniProt P29597)"}, "KIT(V559D,V654A)": {"target": "KIT(V559D,V654A) (Homo sapiens (Human), UniProt P10721, V559D/V654A)"}, "MEK4": {"target": "MEK4 (Homo sapiens (Human), UniProt P45985)", "sequence (P45985 whole entry)": "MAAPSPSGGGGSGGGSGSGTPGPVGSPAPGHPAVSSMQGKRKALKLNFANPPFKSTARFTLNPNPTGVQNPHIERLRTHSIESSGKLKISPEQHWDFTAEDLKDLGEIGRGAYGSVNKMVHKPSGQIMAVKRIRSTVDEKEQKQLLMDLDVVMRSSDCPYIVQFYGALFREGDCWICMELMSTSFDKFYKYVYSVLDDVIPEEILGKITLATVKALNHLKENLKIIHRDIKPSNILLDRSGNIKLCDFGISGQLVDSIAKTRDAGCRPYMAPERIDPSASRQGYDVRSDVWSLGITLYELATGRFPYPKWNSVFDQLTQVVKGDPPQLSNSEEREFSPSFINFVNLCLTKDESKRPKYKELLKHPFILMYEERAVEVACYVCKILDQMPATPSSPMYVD"}, "CSF1R": {"target": "CSF1R (Homo sapiens (Human), UniProt P07333)", "sequence (P07333 20-972)": "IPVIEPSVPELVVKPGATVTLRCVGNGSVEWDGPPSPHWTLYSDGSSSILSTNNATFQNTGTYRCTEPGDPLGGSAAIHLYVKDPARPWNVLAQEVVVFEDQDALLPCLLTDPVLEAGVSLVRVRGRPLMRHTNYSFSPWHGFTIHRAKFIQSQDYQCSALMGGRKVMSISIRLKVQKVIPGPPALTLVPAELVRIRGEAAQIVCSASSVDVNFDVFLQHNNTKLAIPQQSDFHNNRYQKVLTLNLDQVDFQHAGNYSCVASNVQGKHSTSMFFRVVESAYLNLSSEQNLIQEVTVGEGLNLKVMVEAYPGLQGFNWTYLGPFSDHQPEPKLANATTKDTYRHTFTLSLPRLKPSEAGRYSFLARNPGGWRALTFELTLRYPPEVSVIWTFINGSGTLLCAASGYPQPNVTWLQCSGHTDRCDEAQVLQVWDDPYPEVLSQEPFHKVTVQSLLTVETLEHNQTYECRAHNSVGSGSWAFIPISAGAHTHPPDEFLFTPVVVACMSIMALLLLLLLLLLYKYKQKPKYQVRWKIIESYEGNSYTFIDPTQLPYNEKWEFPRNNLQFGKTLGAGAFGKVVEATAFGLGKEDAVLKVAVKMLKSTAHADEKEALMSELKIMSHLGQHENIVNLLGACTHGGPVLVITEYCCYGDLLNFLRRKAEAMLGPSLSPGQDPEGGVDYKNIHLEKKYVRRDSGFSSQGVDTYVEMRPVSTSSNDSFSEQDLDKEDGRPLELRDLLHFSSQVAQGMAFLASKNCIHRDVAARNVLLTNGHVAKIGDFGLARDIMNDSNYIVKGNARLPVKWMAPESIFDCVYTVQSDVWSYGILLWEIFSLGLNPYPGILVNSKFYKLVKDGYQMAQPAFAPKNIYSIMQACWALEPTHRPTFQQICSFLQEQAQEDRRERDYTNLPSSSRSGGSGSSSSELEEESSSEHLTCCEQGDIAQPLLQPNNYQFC"}, "JNK3": {"target": "JNK3 (Homo sapiens (Human), UniProt P53779)"}, "CAMKK1": {"target": "CAMKK1 (Homo sapiens (Human), UniProt Q8N5S9)"}, "TGFBR1": {"target": "TGFBR1 (Homo sapiens (Human), UniProt P36897)", "sequence (P36897 34-503)": "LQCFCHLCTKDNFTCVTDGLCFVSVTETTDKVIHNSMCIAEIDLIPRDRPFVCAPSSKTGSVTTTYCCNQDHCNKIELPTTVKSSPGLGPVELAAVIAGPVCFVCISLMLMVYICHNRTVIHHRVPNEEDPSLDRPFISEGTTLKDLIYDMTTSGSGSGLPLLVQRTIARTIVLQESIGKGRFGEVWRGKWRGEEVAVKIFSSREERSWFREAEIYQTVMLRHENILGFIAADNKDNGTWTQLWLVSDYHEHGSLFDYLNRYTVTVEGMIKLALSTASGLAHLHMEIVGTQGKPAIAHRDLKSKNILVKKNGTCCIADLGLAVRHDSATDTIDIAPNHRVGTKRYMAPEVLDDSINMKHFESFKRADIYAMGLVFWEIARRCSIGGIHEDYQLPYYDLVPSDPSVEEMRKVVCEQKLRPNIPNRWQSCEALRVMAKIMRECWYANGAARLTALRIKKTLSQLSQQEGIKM"}}, "note": "Like-named read-outs stand apart in the source and are kept apart here.", "data": [{"molecule": "CN(C[C@@H](O)Cc1ccccc1)C(=O)c1cncc(C#Cc2cnn(C(F)F)c2)c1", "note": "[Example 2, (S)-5-((1-(difluoromethyl)-1H-pyrazol-4-yl)ethynyl)-N-(2-hydroxy-3-phenylpropyl)-N-methylnicotinamide]", "values": [{"measurement": "remaining activity at 0.1 µM", "setting": "CSNK2A2; CSNK2A2", "value": 100, "unit": "%"}, {"measurement": "remaining activity at 0.1 µM", "setting": "ARK5; ARK5", "value": 100, "unit": "%"}, {"measurement": "remaining activity at 0.1 µM", "setting": "RAF1; RAF1", "value": 100, "unit": "%"}, {"measurement": "remaining activity at 0.1 µM", "setting": "YSK4; YSK4", "value": 99, "unit": "%"}, {"measurement": "remaining activity at 0.1 µM", "setting": "TRPM6; TRPM6", "value": 99, "unit": "%"}, {"measurement": "remaining activity at 0.1 µM", "setting": "NLK; NLK", "value": 100, "unit": "%"}, {"measurement": "remaining activity at 0.1 µM", "setting": "SRPK2; SRPK2", "value": 93, "unit": "%"}, {"measurement": "remaining activity at 0.1 µM", "setting": "FER; FER", "value": 100, "unit": "%"}, {"measurement": "remaining activity at 0.1 µM", "setting": "STK36; STK36", "value": 100, "unit": "%"}, {"measurement": "remaining activity at 0.1 µM", "setting": "PIK3CA(E545K); PIK3CA(E545K)", "value": 91, "unit": "%"}, {"measurement": "remaining activity at 0.1 µM", "setting": "PRKCQ; PRKCQ", "value": 94, "unit": "%"}, {"measurement": "remaining activity at 0.1 µM", "setting": "ERBB3; ERBB3", "value": 100, "unit": "%"}, {"measurement": "remaining activity at 0.1 µM", "setting": "LTK; LTK", "value": 100, "unit": "%"}, {"measurement": "remaining activity at 0.1 µM", "setting": "CDC2L1; CDC2L1", "value": 100, "unit": "%"}, {"measurement": "remaining activity at 0.1 µM", "setting": "PIM3; PIM3", "value": 100, "unit": "%"}, {"measurement": "remaining activity at 0.1 µM", "setting": "RET; RET", "value": 100, "unit": "%"}, {"measurement": "remaining activity at 0.1 µM", "setting": "NDR1; NDR1", "value": 100, "unit": "%"}, {"measurement": "remaining activity at 0.1 µM", "setting": "RET(V804L); RET(V804L)", "value": 100, "unit": "%"}, {"measurement": "remaining activity at 0.1 µM", "setting": "CDK5; CDK5", "value": 100, "unit": "%"}, {"measurement": "remaining activity at 0.1 µM", "setting": "RIOK1; RIOK1", "value": 100, "unit": "%"}, {"measurement": "remaining activity at 0.1 µM", "setting": "FYN; FYN", "value": 100, "unit": "%"}, {"measurement": "remaining activity at 0.1 µM", "setting": "MST4; MST4", "value": 97, "unit": "%"}, {"measurement": "remaining activity at 0.1 µM", "setting": "[1]; TYK2(JH1domain-catalytic)", "value": 100, "unit": "%"}, {"measurement": "remaining activity at 0.1 µM", "setting": "KIT(V559D,V654A); KIT(V559D,V654A)", "value": 94, "unit": "%"}, {"measurement": "remaining activity at 0.1 µM", "setting": "MEK4; MEK4", "value": 100, "unit": "%"}, {"measurement": "remaining activity at 0.1 µM", "setting": "CSF1R; CSF1R", "value": 100, "unit": "%"}, {"measurement": "remaining activity at 0.1 µM", "setting": "JNK3; JNK3", "value": 83, "unit": "%"}, {"measurement": "remaining activity at 0.1 µM", "setting": "CAMKK1; CAMKK1", "value": 100, "unit": "%"}, {"measurement": "remaining activity at 0.1 µM", "setting": "TGFBR1; TGFBR1", "value": 100, "unit": "%"}]}, {"molecule": "CN(C[C@H](Cc1ccccc1)OP(=O)(O)O)C(=O)c1cncc(C#Cc2cnn(C(F)F)c2)c1", "note": "[Example 19, (S)-1-(5-((1-(difluoromethyl)-1H-pyrazol-4-yl)ethynyl)-N-methylnicotinamido)-3-phenylpropan-2-yl dihydrogen phosphate]", "values": [{"measurement": "remaining activity at 0.1 µM", "setting": "CSNK2A2", "value": 100, "unit": "%"}, {"measurement": "remaining activity at 0.1 µM", "setting": "ARK5", "value": 100, "unit": "%"}, {"measurement": "remaining activity at 0.1 µM", "setting": "RAF1", "value": 100, "unit": "%"}, {"measurement": "remaining activity at 0.1 µM", "setting": "YSK4", "value": 90, "unit": "%"}, {"measurement": "remaining activity at 0.1 µM", "setting": "TRPM6", "value": 95, "unit": "%"}, {"measurement": "remaining activity at 0.1 µM", "setting": "NLK", "value": 100, "unit": "%"}, {"measurement": "remaining activity at 0.1 µM", "setting": "SRPK2", "value": 100, "unit": "%"}, {"measurement": "remaining activity at 0.1 µM", "setting": "FER", "value": 96, "unit": "%"}, {"measurement": "remaining activity at 0.1 µM", "setting": "STK36", "value": 100, "unit": "%"}, {"measurement": "remaining activity at 0.1 µM", "setting": "PIK3CA(E545K)", "value": 85, "unit": "%"}, {"measurement": "remaining activity at 0.1 µM", "setting": "PRKCQ", "value": 98, "unit": "%"}, {"measurement": "remaining activity at 0.1 µM", "setting": "ERBB3", "value": 100, "unit": "%"}, {"measurement": "remaining activity at 0.1 µM", "setting": "LTK", "value": 100, "unit": "%"}, {"measurement": "remaining activity at 0.1 µM", "setting": "CDC2L1", "value": 100, "unit": "%"}, {"measurement": "remaining activity at 0.1 µM", "setting": "PIM3", "value": 100, "unit": "%"}, {"measurement": "remaining activity at 0.1 µM", "setting": "RET", "value": 100, "unit": "%"}, {"measurement": "remaining activity at 0.1 µM", "setting": "NDR1", "value": 100, "unit": "%"}, {"measurement": "remaining activity at 0.1 µM", "setting": "RET(V804L)", "value": 100, "unit": "%"}, {"measurement": "remaining activity at 0.1 µM", "setting": "CDK5", "value": 100, "unit": "%"}, {"measurement": "remaining activity at 0.1 µM", "setting": "RIOK1", "value": 100, "unit": "%"}, {"measurement": "remaining activity at 0.1 µM", "setting": "FYN", "value": 100, "unit": "%"}, {"measurement": "remaining activity at 0.1 µM", "setting": "MST4", "value": 84, "unit": "%"}, {"measurement": "remaining activity at 0.1 µM", "setting": "[1]", "value": 100, "unit": "%"}, {"measurement": "remaining activity at 0.1 µM", "setting": "KIT(V559D,V654A)", "value": 100, "unit": "%"}, {"measurement": "remaining activity at 0.1 µM", "setting": "MEK4", "value": 100, "unit": "%"}, {"measurement": "remaining activity at 0.1 µM", "setting": "CSF1R", "value": 100, "unit": "%"}, {"measurement": "remaining activity at 0.1 µM", "setting": "JNK3", "value": 86, "unit": "%"}, {"measurement": "remaining activity at 0.1 µM", "setting": "CAMKK1", "value": 100, "unit": "%"}, {"measurement": "remaining activity at 0.1 µM", "setting": "TGFBR1", "value": 100, "unit": "%"}]}]}
